Patent publication US12673963B2, “Cationic lipids for lipid nanoparticle delivery of therapeutics to hepatic stellate cells” (GENEVANT SCIENCES GMBH, priority 2020, dated 2026)

Key:
reelin mRNA = experiment: Reelin mRNA knock-down following IV administration of the LNP formulations (FIGS. 1-4); assay type: in vivo; conditions: Balb/C mice (n=4); for reelin mRNA knock-down in HSCs, specificity for HSCs (FIG. 2) / dose giving equivalent potency in reelin mRNA knock-down (FIG. 1): 48 hours following IV administration
Experimental: (§1) The lipid solution contained 4 components: a PEG-conjugated lipid, an ionizable lipid (e.g., a silicon lipid), cholesterol, and a phospholipid (e.g., DSPC). Lipid stocks were prepared using the lipid identities and molar ratios as described. The siRNA was diluted in 100 mM acetate, pH 4 buffer to prepare lipid nanoparticles (LNP) at a total lipid to siRNA weight ratio of approximately 10:1 to 20:1. Equal volumes of the lipid and nucleic acid solutions were blended at a flow rate of 400 mL/min through a T-connector, and diluted into PBS, pH 7.4. The ethanol was then removed and the external buffer replaced with Tris/NaCl buffer by dialysis. Following dialysis, the formulations were concentrated using VivaSpin concentrator units (MWCO 100,000) and filtered through a 0.2 μm pore sterile filter. Nucleic acid concentration was determined by the RiboGreen assay. Particle size and polydispersity were determined using a Malvern Nano Series Zetasizer.
(§2) Generally, the LNP formulations were injected intravenously at 0.025 mg/kg to female Balb/C mice (5-8 weeks old) to measure activity of the HSC-LNP. Just prior to injection, the siRNA LNP stocks were filtered and diluted down to the required dosing concentration. At 48h post-dose (terminal timepoint), the animals were euthanized with a lethal dose of ketamine/xylazine. Half the left lateral lobe of the liver was collected into 1.5 mL RNALater and stored at 2-8° C. overnight. The next day, an approximately 20-25 mg piece of liver was homogenized and the liver lysate used in a QuantiGene Assay, testing for relative levels of mouse target mRNA and GAPDH expression. Data from each animal was normalized to the liver weight used in the assay, and then relative to the GAPDH signal; data is reported as the average % knock-down of each group (where the PBS control group is 100% gene expression, 0% knock-down).

mouse target mRNA = experiment: Activity assessment of HSC-LNP: liver target mRNA knock-down (QuantiGene) after IV injection of siRNA LNP (Table 1); assay type: in vivo, female Balb/C mice; conditions: dose 0.025 mg/kg IV, 48h post-dose, relative to PBS control
Experimental: as §1
as §2, with “Just” for “Generally, the LNP formulations were injected intravenously at 0.025 mg/kg to female Balb/C mice (5-8 weeks old) to measure activity of the HSC-LNP. Just”

[1] = Duration of action of LNP with minimally modified siRNA (FIG. 6); assay type: in vivo
[2] = Clearance of LNP from mouse liver, biodegradable functionality (FIG. 7); assay type: in vivo
[3] = Tolerability assessment of HSC-LNP: liver enzyme levels (FIGS. 5A-5B); assay type: in vivo, female Balb/C mice; conditions: dose range up to 3 mg/kg IV
Experimental: Generally, the LNP formulations were injected intravenously at ˜0.03 to 3 mg/kg to female Balb/C mice (5-8 weeks old) to assess tolerability of the HSC-LNP. Just prior to injection, the siRNA LNP stocks were filtered and diluted down to the required dosing concentration. At 2h post-treatment, blood was collected via tail nicks and processed to plasma (for cytokine analysis by ELISA). At the terminal timepoint (24 h post-dose), blood was collected by cardiac puncture (target ≥800 μL) and sent to IDEXX for CRES 15 panel analysis (CBC/Diff & Clin Chem analysis).
Briefly, blood (˜300 uL) was collected into EDTA microtainer tubes, inverted 10× to mix the K2EDTA whole blood sample, and immediately stored at 4° C. to await same-day shipment to for hematology analysis. The remaining blood volume (˜500 uL) was collected into serum separator tubes and inverted 5× to mix the SST sample, then allowed to clot for 1-1.5h at room temp. The blood samples were centrifuged, and serum was collected for clinical chemistry analysis.

[4] = 24 hours following IV administration

CCCCC/C=C\CCCC(CCC/C=C\CCCCC)C(CCC/C=C\CCCCC)OC(=O)CCCCN(C)C (stereo not shown) [Compound 101, reference compound]
reelin mRNA knock-down in HSCs, specificity for HSCs (FIG. 2) (reelin mRNA): no knock-down in HSCs

CCCCC/C=C\CCCO[Si](C)(CCCCN(CC)CCCN(CC)CCCC[Si](C)(OCCC/C=C\CCCCC)OCCC/C=C\CCCCC)OCCC/C=C\CCCCC [Compound 29]
Percent knock-down (mouse target mRNA; Formulation 1.1:55 (DSPC)): 29%

CCCCC/C=C\CCCO[Si](C)(CCCCN1CCC2(CC1)CCN(CCCC[Si](C)(OCCC/C=C\CCCCC)OCCC/C=C\CCCCC)C2)OCCC/C=C\CCCCC [Compound 39]
Percent knock-down (mouse target mRNA; Formulation 1.5:50 (DSPC)): 81%

CCCCC/C=C\CCCO[Si](C)(CCCCN(C)CCCN(C)CCCC[Si](C)(OCCC/C=C\CCCCC)OCCC/C=C\CCCCC)OCCC/C=C\CCCCC [Compound 12, N1,N3-bis(4-(bis(((Z)-dec-4-en-1-yl)oxy)(methyl)silyl)butyl)-N1,N3-dimethylpropane-1,3-diamine]
duration of action (FIG. 6) [1]: good duration of action | clearance of LNP from mouse liver (FIG. 7) [2]: cleared rapidly from mouse liver | dose at which maximum knock-down in HSCs is achieved (FIG. 3) (reelin mRNA; [4]): about 0.03 mg/kg | dose required to achieve equivalent reelin mRNA knock-down (FIG. 4) (reelin mRNA; [4]): 0.03 mg/kg | dose giving equivalent potency in reelin mRNA knock-down (FIG. 1) (reelin mRNA): 0.025 mg/kg | reelin mRNA knock-down in HSCs, specificity for HSCs (FIG. 2) (reelin mRNA): high specificity for HSCs | tolerability: liver enzyme levels (FIGS. 5A-5B) [3]: no significant increases in liver enzyme levels

CCCCC/C=C\CCCC(CCC/C=C\CCCCC)C(CCC/C=C\CCCCC)OC(=O)CCCCCN(C)C (stereo not shown) [Compound 100, reference compound]
dose required to achieve equivalent reelin mRNA knock-down (FIG. 4) (reelin mRNA; [4]): ~1 mg/kg | dose giving equivalent potency in reelin mRNA knock-down (FIG. 1) (reelin mRNA): 0.1 mg/kg

CCCCC/C=C\CCCO[Si](C)(CCCCN1CCC2(CC1)CCN(CCCC[Si](C)(OCCC/C=C\CCCCC)OCCC/C=C\CCCCC)CC2)OCCC/C=C\CCCCC [Compound 42]
Percent knock-down (mouse target mRNA; Formulation 1.5:50 (DSPC)): 28%

CCCCC/C=C\CCCO[SiH](CCCCN1CCN(C)CCN(CCCC[Si](C)(OCCC/C=C\CCCCC)OCCC/C=C\CCCCC)CC1)OCCC/C=C\CCCCC [Compound 38]
Percent knock-down (mouse target mRNA; Formulation 1.5:50 (DSPC)): 1%

CCCCC/C=C\CCCO[Si](C)(CCCCN1CCC2(CC1)CCN(CCCC[Si](C)(OCCC/C=C\CCCCC)OCCC/C=C\CCCCC)CC2)OCCC/C=C\CCCCC [Compound 14]
Percent knock-down (mouse target mRNA; Formulation 1.1:55 (DOPE)): 18%

CCCCC/C=C\CCCO[Si](C)(CCCCN1C[C@H]2CCCN(CCCC[Si](C)(OCCC/C=C\CCCCC)OCCC/C=C\CCCCC)[C@H]2C1)OCCC/C=C\CCCCC [Compound 43]
Percent knock-down (mouse target mRNA; Formulation 1.5:50 (DSPC)): 0%
